Reference: ChEMBL document CHEMBL1201862, “PubChem BioAssay data set” (2004)
Active and inactive are the calls of the source.

What was measured:
[1] = target: T1, High affinity choline transporter 1 (Homo sapiens, UniProt Q9GZV3); test: human choline transporter blockers, potency – cell-based, 5-point CRC, membrane potential dye, dose response (AID 504840); type: functional
T1 sequence (Q9GZV3 whole entry): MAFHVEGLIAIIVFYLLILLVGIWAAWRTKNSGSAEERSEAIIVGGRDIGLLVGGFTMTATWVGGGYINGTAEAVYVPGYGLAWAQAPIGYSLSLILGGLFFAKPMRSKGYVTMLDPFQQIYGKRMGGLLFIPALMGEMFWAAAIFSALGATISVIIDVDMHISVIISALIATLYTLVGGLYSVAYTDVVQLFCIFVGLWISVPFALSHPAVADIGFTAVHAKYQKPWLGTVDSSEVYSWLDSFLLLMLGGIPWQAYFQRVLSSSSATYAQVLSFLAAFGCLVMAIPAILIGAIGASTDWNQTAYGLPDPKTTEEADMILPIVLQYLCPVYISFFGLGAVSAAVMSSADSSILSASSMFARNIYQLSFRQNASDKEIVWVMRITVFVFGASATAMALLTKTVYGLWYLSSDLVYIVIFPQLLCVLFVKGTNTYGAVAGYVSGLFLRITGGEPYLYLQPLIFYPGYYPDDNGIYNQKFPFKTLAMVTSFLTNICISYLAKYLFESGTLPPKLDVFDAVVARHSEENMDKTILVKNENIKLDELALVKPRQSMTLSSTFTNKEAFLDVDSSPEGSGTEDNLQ

[2] = target: T1, High affinity choline transporter 1; test: human choline transporter blockers, potency – cell-based, 10-point CRC, membrane potential dye, dose response (AID 588401); type: functional;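 also: membrane potential dye fluorescence of choline-evoked depolarization via CHT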
[3] = target: T2, Sentrin-specific protease 7 (Homo sapiens, UniProt Q9BQF6); test: inhibition of human SENP7 cleavage activity – biochemical, luminescence, SAR follow-up (AID 504497); type: functional
T2 sequence (Q9BQF6 whole entry): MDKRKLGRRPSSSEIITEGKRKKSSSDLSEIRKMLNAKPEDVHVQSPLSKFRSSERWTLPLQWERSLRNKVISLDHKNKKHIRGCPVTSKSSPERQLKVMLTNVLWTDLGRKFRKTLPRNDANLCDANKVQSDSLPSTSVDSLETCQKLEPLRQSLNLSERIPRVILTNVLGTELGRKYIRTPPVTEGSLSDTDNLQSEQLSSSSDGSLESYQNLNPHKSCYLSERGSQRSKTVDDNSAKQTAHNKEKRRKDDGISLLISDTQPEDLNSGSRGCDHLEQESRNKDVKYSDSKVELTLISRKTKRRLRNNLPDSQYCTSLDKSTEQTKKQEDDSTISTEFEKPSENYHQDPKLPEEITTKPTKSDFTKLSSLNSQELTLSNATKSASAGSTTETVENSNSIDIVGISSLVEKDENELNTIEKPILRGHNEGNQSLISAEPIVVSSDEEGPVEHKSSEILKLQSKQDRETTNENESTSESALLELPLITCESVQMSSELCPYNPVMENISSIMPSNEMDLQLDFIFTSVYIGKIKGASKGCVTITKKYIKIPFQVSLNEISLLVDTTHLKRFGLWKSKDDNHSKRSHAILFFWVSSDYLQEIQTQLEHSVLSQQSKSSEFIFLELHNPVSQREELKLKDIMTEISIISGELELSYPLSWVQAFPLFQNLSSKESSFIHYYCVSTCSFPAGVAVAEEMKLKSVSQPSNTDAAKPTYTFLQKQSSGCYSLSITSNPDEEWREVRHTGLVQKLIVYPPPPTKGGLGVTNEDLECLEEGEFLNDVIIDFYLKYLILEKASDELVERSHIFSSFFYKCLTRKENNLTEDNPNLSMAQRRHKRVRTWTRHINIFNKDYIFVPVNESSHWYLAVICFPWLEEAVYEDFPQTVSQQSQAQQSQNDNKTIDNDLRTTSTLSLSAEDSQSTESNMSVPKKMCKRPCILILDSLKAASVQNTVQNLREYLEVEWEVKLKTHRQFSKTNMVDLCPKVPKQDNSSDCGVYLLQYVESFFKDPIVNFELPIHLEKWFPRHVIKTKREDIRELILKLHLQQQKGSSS

[4] = target: T3, Sentrin-specific protease 6 (Homo sapiens, UniProt Q9GZR1); test: SAR Analysis of small molecule inhibitors of Sentrin-specific protease 6 (SENP6) using a Luminescent assay. [Related pubchem assays (depositor defined):AID2582, AID2599]; type: functional
T3 sequence (Q9GZR1 whole entry): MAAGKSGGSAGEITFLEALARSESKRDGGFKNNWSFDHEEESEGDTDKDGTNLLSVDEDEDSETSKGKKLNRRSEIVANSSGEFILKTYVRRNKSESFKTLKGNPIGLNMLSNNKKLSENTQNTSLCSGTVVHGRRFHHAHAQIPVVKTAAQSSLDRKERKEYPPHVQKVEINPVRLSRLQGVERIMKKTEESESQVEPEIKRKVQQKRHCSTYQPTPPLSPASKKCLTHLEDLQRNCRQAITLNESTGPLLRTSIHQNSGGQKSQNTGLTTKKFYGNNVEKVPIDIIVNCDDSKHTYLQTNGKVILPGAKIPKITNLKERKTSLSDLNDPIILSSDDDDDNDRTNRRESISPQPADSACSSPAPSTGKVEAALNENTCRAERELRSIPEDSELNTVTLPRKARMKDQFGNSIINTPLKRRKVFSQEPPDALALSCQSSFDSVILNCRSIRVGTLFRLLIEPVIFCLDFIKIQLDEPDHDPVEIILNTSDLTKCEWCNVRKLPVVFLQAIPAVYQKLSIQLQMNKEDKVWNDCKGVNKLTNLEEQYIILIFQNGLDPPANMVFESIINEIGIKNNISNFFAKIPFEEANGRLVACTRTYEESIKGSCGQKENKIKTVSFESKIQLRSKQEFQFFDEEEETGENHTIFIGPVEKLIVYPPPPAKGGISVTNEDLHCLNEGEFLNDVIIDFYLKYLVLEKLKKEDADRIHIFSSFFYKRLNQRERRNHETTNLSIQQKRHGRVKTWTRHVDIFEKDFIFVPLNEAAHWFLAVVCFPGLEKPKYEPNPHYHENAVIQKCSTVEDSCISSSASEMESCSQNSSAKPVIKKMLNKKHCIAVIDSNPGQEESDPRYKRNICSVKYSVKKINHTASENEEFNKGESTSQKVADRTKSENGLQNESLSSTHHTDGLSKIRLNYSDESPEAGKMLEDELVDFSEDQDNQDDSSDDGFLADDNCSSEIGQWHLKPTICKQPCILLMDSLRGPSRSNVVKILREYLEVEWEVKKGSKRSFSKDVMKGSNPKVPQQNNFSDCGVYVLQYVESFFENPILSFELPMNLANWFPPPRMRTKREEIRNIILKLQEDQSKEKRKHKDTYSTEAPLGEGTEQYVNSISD

Caspase-3 = target: T4, Caspase-3 (Homo sapiens, UniProt P42574); test: SAR Analysis of small molecule inhibitors of Sentrin-specific proteases (SENPs) using a Caspase-3 Selectivity assay. [Related pubchem assays (depositor defined):AID2540, AID2599, AID434973, AID489001]; type: functional
T4 sequence (P42574 whole entry): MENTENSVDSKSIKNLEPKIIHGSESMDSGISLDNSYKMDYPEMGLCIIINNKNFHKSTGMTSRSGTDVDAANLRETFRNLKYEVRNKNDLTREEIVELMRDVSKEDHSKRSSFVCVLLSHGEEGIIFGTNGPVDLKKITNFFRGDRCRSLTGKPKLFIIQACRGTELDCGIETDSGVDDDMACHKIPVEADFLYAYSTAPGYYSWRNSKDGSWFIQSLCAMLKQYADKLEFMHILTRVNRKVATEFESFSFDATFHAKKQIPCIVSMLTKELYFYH

[5] = target: T5, Sentrin-specific protease 8 (Homo sapiens, UniProt Q96LD8); test: inhibition of human SENP8 cleavage activity – biochemical, luminescence, SAR follow-up (AID 504501); type: functional
T5 sequence (Q96LD8 whole entry): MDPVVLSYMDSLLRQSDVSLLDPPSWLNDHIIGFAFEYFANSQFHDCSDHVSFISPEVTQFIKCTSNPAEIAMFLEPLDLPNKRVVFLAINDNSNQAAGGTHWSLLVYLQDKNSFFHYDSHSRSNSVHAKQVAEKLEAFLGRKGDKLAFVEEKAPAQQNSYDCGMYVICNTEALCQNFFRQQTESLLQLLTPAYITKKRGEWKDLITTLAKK

[6] = target: Benomyl/methotrexate resistance protein (Candida albicans, UniProt P28873); test: Candida albicans Mdr1 pump inhibition curves – singleplex, Cherry Pick1 hits, dose response (AID 588608); type: functional
[7] = target: T6, Endoribonuclease toxin MazF (Escherichia coli K-12, UniProt P0AE70); test: substrate-only fluorescence increase artefacts – biochemical, single-stranded RNase substrate, counter-screen for MazEF activator project, dose response (AID 588502); type: functional
T6 sequence (P0AE70 whole entry): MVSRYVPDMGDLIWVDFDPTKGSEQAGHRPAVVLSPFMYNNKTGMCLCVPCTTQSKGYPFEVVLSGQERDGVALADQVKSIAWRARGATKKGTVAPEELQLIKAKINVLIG

[8] = target: T6, Endoribonuclease toxin MazF; test: activation of MazEF endoribonuclease cleavage – biochemical, fluorescence, single-stranded RNA substrate, uHTS hits, dose response (AID 588481); type: functional
Insulin-degrading enzyme [9] = target: T7, Insulin-degrading enzyme (Homo sapiens, UniProt P14735); test: recombinant IDE activation, cell-free – biochemical, fluorescence polarization, counter-screen for IDE activator project, dose response (AID 588681)
T7 sequence (P14735 whole entry): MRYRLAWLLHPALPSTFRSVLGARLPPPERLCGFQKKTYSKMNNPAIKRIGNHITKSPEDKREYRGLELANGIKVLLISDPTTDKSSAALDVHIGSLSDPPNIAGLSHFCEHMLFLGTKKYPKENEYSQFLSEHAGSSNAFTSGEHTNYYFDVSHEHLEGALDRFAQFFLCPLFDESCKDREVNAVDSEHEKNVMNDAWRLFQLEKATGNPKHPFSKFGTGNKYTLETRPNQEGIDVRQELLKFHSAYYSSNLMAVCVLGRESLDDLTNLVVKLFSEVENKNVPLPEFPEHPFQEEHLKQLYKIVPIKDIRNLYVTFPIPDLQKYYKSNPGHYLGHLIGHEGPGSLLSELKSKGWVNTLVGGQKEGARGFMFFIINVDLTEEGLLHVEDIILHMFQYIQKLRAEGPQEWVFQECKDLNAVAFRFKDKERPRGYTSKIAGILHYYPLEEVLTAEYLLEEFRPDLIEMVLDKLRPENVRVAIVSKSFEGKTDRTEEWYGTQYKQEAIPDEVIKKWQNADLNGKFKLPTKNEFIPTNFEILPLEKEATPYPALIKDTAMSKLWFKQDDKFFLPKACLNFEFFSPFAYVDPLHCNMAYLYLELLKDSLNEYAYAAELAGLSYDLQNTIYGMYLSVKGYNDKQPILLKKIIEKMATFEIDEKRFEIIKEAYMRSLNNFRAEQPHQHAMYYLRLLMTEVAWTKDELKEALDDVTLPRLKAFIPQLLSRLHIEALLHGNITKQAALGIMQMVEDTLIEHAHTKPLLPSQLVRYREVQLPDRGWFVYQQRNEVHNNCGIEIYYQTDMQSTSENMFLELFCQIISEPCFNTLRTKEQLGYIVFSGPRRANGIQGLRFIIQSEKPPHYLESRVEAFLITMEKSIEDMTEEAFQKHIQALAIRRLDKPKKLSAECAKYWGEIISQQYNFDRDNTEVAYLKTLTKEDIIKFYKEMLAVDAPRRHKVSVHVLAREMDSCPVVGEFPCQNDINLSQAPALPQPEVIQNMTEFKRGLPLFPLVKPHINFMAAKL

Insulin-degrading enzyme [10] = target: T7, Insulin-degrading enzyme; test: cellular IDE activation of Abeta substrate cleavage – fluorescence polarization, HEK cells, dose response (AID 588439); type: functional, cell-based
HEK293 [11] = test: optical interference in Abeta FP readout, dose response, artefact control for IDE activator project, biochemical, fluorescence polarization (AID 588442); type: functional, cell-based; conditions: Homo sapiens
HEK293 [12] = test: membrane integrity loss in HEK cells – cell-based, fluorescence, cytotoxicity control for IDE activator project, dose response (AID 588440); type: functional; conditions: Homo sapiens;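 also: cytotoxicity by LDH release measuring loss of membrane integrity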

Chain of Benomyl/methotrexate resistance protein (P28873 whole entry): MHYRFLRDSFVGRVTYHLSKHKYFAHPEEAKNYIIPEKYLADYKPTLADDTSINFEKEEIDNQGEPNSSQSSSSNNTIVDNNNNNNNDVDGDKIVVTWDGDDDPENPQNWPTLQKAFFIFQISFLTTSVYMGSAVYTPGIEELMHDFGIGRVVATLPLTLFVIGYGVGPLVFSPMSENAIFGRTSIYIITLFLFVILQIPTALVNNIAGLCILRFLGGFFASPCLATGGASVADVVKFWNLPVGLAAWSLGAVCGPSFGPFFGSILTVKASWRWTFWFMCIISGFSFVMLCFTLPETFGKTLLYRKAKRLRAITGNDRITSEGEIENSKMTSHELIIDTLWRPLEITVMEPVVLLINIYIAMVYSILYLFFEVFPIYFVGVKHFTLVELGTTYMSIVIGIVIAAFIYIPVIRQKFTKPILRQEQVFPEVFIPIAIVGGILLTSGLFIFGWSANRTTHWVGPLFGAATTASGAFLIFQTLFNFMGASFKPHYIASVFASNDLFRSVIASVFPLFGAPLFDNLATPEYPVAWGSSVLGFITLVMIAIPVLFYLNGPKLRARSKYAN

**Q.** With `CC(=O)OC1CC2(C)C(=O)CCC2C2CCc3cc(O)ccc3C12` (stereo not drawn) as the compound, how does the IC50 [1] read?
**A.** 9.28 µM (active)

**Q.** What about the IC50 [2] of the same compound?
**A.** 3.36 µM (active)

**Q.** `N#Cc1c(NC(=O)c2ccc(Cn3cc(Br)cn3)o2)sc2c1CCCCCC2` was tested. Which IC50 [3] did it give?
**A.** > 99 µM (inactive)

**Q.** And the IC50 [4]?
**A.** > 99 µM (inactive)

**Q.** What about the IC50 (Caspase-3) of the same compound?
**A.** > 99 µM (inactive)

**Q.** What about the IC50 [5] of the same compound?
**A.** > 99 µM (inactive)

**Q.** What does the source list for `COc1ccc(/C=C2\SC(c3ccc(C)cc3)=NC2=O)cc1OC`?
**A.** EC50 [6]: 5.12 µM (active); EC50 [7]: > 99 µM (inactive); EC50 [8]: > 99 µM (inactive)

**Q.** `CNC[C@@H]1Oc2ccc(NS(=O)(=O)c3ccc(OC)cc3)cc2CC(=O)N([C@H](C)CO)C[C@@H]1C` was tested. Which EC50 (Insulin-degrading enzyme [9]) did it give?
**A.** > 54.7 µM (inactive)

**Q.** What about the EC50 (Insulin-degrading enzyme [10]) of the same compound?
**A.** > 54.7 µM (inactive)

**Q.** What about the EC50 (HEK293 [11]) of the same compound?
**A.** > 55.9 µM (inactive)

**Q.** What about the IC50 (HEK293 [12]) of the same compound?
**A.** > 89.2 µM (inactive)
